# From patent US20240158394A1, “NEK7 INHIBITORS” (Halia Therapeutics, Inc., priority 2022, published 2024)
# How the values were obtained:
# IL-1β release = assay: IL-1β Release Assay; format: cell-based; details: Homo sapiens; PMA-treated THP-1 cells, 250 ng/mL LPS then 20 μM nigericin; cleaved IL-1β in media
# Method: Approximately 1.5 million THP-1 cells were plated in each well of a 6-well TC plate and incubated with 40 nM PMA in RPMI (10% FBS, 1% Penstrep) for 24 hours. The media was then removed, and cells were rested in RPMI (10% FBS, 1% Penstrep) for 24 hours after which time the media was removed and cells were pre-treated for 2 hours with various concentrations of compounds of interest (typically serial 3-fold dilution in RPMI+5% FBS, concentrations ranging from 1 μM to 0.5 nM) in RPMI (5% FBS). The media was again removed, and cells were incubated with 250 ng/mL LPS and compounds of interest (concentrations as above) in RMPI (5% FBS) for 2 hours. The media was removed for a last time and cells were incubated with 20 μM nigericin and compounds of interest (concentrations as above) in Opti-MEM for 30 minutes. Cell media was then collected and the amount of cleaved IL-1β was determined using a JESS instrument (Protein Simple) and standard protocols. Cleaved Il-1β antibody was obtained from Cell Signaling (catalogue #83186S) and was used at 1:20 dilution in antibody diluent 2. Protein Simple 1× anti-Rabbit HRP secondary antibody was used along with Protein Simple luminol and peroxide for chemiluminescent detection. Primary antibody incubation time was increased from 30 minutes to 60 minutes.
# [1] = target: full-length recombinant human NEK7 (Homo sapiens (Human), UniProt Q8TDX7); assay: NEK7 Enzymatic Assay; format: biochemical; details: casein substrate, [33P]-ATP, 2 hours at room temperature
# Sequence of full-length recombinant human NEK7 (Q8TDX7 whole entry): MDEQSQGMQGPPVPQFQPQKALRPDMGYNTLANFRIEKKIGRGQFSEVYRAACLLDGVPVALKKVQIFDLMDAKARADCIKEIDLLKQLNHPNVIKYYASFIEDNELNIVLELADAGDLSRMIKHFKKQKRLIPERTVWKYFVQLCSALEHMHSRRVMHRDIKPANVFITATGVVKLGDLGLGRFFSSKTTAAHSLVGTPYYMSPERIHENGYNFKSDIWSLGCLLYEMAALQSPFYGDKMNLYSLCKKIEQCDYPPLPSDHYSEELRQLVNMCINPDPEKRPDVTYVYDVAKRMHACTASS
# How it was run: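 GST-tagged full-length human NEK7 (Sf9-expressed) with 1 mg/mL casein in HEPES pH 7.5/MgCl2 buffer, 1% DMSO; compounds 10 μM–0.5 nM preincubated 20 min at RT. Reaction started with [^33P]-ATP, 2 h at RT, P81 filter radioactivity read; IC50 from % activity remaining versus vehicle.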
Compound,IC50 (IL-1β release),IC50 [1]
"CN1CCN(Cc2ccc(NC(=O)Nc3ccc(-c4nn(C5CC5)c5ncnc(N)c45)n4ccnc34)cc2C(F)(F)F)CC1 [Example I-98, 1-(5-(4-amino-1-cyclopropyl-1H-pyrazolo[3,4-d]pyrimidin-3-yl)imidazo[1,2-a]pyridin-8-yl)-3-(4-((4-methylpiperazin-1-yl)methyl)-3-(trifluorometh-yl)phenyl)urea]",< 100 nM,< 200 nM
"CN1CCN(Cc2ccc(NC(=O)Nc3ccc(-c4cn(C5CC5)c5ncnc(N)c45)n4ccnc34)cc2C(F)(F)F)CC1 [Example I-34, 1-(5-(4-amino-7-cyclopropyl-7H-pyrrolo[2,3-d]pyrimidin-5-yl)imidazo[1,2-a]pyridin-8-yl)-3-(4-((4-methylpiperazin-1-yl)methyl)-3-(trifluorometh-yl)phenyl)urea]",< 100 nM,< 200 nM
"Nc1ncnc2c1c(-c1ccc(NC(=O)Nc3cc(C4(C(F)(F)F)CC4)on3)c3oncc13)cn2C1CC1 [Example I-68, 1-(4-(4-amino-7-cyclopropyl-7H-pyrrolo[2,3-d]pyrimidin-5-yl)benzo[d]isoxazol-7-yl)-3-(5-(1-(trifluoromethyl)cyclo-propyl)isoxazol-3-yl)urea]",100 to 250 nM,< 200 nM
"CN1CCN(Cc2ccc(NC(=O)Nc3ccc(-c4cn(C5CC5)c5ncnc(N)c45)c4ccoc34)cc2C(F)(F)F)CC1 [Example I-66, 1-(4-(4-amino-7-cyclopropyl-7H-pyrrolo[2,3-d]pyrimidin-5-yl)benzofuran-7-yl)-3-(4-((4-methylpiperazin-1-yl)-methyl)-3-(trifluoromethyl)-phenyl)urea]",< 100 nM,200 to 500 nM
"CN1CCN(Cc2ccc(NC(=O)Nc3ccc(-c4cn(C5CC5)c5ncnc(N)c45)c4c3OCC4)cc2C(F)(F)F)CC1 [Example I-53, 1-(4-(4-amino-7-cyclopropyl-7H-pyrrolo[2,3-d]pyrimidin-5-yl)-2,3-dihydrobenzofuran-7-yl)-3-(4-((4-methylpiperazin-1-yl)methyl)-3-(trifluorometh-yl)phenyl)urea]",< 100 nM,< 200 nM
"Nc1ncnc2c1c(-c1ccc(NC(=O)Nc3cc(C4(C(F)(F)F)CC4)no3)c3nccn13)cn2C1CC1 [Example I-22, 1-(5-(4-amino-7-cyclopropyl-7H-pyrrolo[2,3-d]pyrimidin-5-yl)imidazo[1,2-a]pyridin-8-yl)-3-(3-(1-(trifluoromethyl)-cyclopropyl)isoxazol-5-yl)-urea]",< 100 nM,< 200 nM
"CN1CCC(Oc2ccc(NC(=O)Nc3ccc(-c4cn(C5CC5)c5ncnc(N)c45)n4ccnc34)cc2C(F)(F)F)CC1 [Example I-37, 1-(5-(4-amino-7-cyclopropyl-7H-pyrrolo[2,3-d]pyrimidin-5-yl)imidazo[1,2-a]pyridin-8-yl)-3-(4-((1-methylpiperidin-4-yl)oxy)-3-(trifluorometh-yl)phenyl)urea]",< 100 nM,< 200 nM
"Nc1ncnc2c1c(-c1ccc(NC(=O)Nc3cc(C4(C(F)(F)F)CC4)on3)c3cnccc13)cn2C1CC1 [Example I-8, 1-(5-(4-amino-7-cyclopropyl-7H-pyrrolo[2,3-d]pyrimidin-5-yl)isoquinolin-8-yl)-3-(5-(1-(trifluoromethyl)cyclopropyl)-isoxazol-3-yl)urea]",100 to 250 nM,< 200 nM
"Nc1ncnc2c1c(-c1ccc(NC(=O)Nc3cc(C4(C(F)(F)F)CC4)on3)c3nccn13)cn2C1CC1 [Example I-32, 1-(5-(4-amino-7-cyclopropyl-7H-pyrrolo[2,3-d]pyrimidin-5-yl)imidazo[1,2-a]pyridin-8-yl)-3-(5-(1-(trifluoromethyl)-cyclopropyl)isoxazol-3-yl)-urea]",> 1000 nM,< 200 nM
"CN1CCN(Cc2ccc(NC(=O)Nc3ccc(-c4cn(C5CC5)c5ncnc(N)c45)c4ncoc34)cc2C(F)(F)F)CC1 [Example I-72, 1-(4-(4-amino-7-cyclopropyl-7H-pyrrolo[2,3-d]pyrimidin-5-yl)benzo[d]oxazol-7-yl)-3-(4-((4-methylpiperazin-1-yl)-methyl)-3-(trifluoromethyl)-phenyl)urea]",> 1000 nM,500 to 2000 nM
"CN1CCC(Oc2ccc(NC(=O)Nc3ccc(-c4cn(C5CC5)c5ncnc(N)c45)c4nonc34)cc2C(F)(F)F)CC1 [Example I-79, 1-(7-(4-amino-7-cyclopropyl-7H-pyrrolo[2,3-d]pyrimidin-5-yl)benzo[c][1,2,5]oxadiazol-4-yl)-3-(4-((1-methylpiperidin-4-yl)oxy)-3-(trifluoromethyl)-phenyl)urea]",< 100 nM,< 200 nM
"Nc1ncnc2c1c(-c1ccc(NC(=O)Nc3cc(C4(C(F)(F)F)CC4)on3)c3nccn13)cn2-c1cccnc1 [Example I-91, 1-(5-(4-amino-7-(pyridin-3-yl)-7H-pyrrolo[2,3-d]pyrimidin-5-yl)imidazo[1,2-a]pyridin-8-yl)-3-(5-(1-(trifluoromethyl)-cyclopropyl)isoxazol-3-yl)urea]",–,< 200 nM
"Nc1ncnc2c1c(-c1ccc(NC(=O)Nc3cc(C4(C(F)(F)F)CCC4)no3)c3nccn13)cn2C1CC1 [Example I-23, 1-(5-(4-amino-7-cyclopropyl-7H-pyrrolo[2,3-d]pyrimidin-5-yl)imidazo[1,2-a]pyridin-8-yl)-3-(3-(1-(trifluoromethyl)-cyclobutyl)isoxazol-5-yl)urea]",–,< 200 nM
"CC1Cc2c(-c3cn(C4CC4)c4ncnc(N)c34)ccc(NC(=O)Nc3cc(C4(C(F)(F)F)CC4)on3)c2O1 (stereo not drawn) [Example I-56, 1-(4-(4-amino-7-cyclopropyl-7H-pyrrolo[2,3-d]pyrimidin-5-yl)-2-methyl-2,3-dihydro-benzofuran-7-yl)-3-(5-(1-(trifluoromethyl)cyclopropyl)-isoxazol-3-yl)urea]",–,500 to 2000 nM
"CN1CCC(n2cc(-c3ccc(NC(=O)Nc4ccc(CN5CCN(C)CC5)c(C(F)(F)F)c4)c4nccn34)c3c(N)ncnc32)CC1 [Example I-134, 1-(5-(4-amino-7-(1-methyl-piperidin-4-yl)-7H-pyrrolo-[2,3-d]pyrimidin-5-yl)imidazo-[1,2-a]pyridin-8-yl)-3-(4-((4-methylpiperazin-1-yl)methyl)-3-(trifluoromethyl)phenyl)urea]",–,200 to 500 nM
"Nc1ncnc2c1c(-c1ccc(NC(=O)Nc3ccc(CN4CCN(CCF)CC4)c(C(F)(F)F)c3)c3nccn13)cn2C1CC1 [Example I-41, 1-(5-(4-amino-7-cyclopropyl-7H-pyrrolo[2,3-d]pyrimidin-5-yl)imidazo[1,2-a]pyridin-8-yl)-3-(4-((4-(2-fluoroethyl)-piperazin-1-yl)methyl)-3-(trifluoromethyl)phenyl)urea]",–,< 200 nM
"Nc1ncnc2c1c(-c1ccc(NC(=O)Nc3ccc(CN4CCN(CCO)CC4)c(C(F)(F)F)c3)c3nccn13)cn2C1CC1 [Example I-39, 1-(5-(4-amino-7-cyclopropyl-7H-pyrrolo[2,3-d]pyrimidin-5-yl)imidazo[1,2-a]pyridin-8-yl)-3-(4-((4-(2-hydroxyeth-yl)piperazin-1-yl)methyl)-3-(trifluoromethyl)phenyl)urea]",–,< 200 nM
"Nc1ncnc2c1c(-c1ccc(NC(=O)Nc3cc(C4(C(F)(F)F)CC4)on3)c3nccn13)cn2C1CCNCC1 [Example I-94, 1-(5-(4-amino-7-(piperidin-4-yl)-7H-pyrrolo[2,3-d]pyr-imidin-5-yl)imidazo[1,2-a]-pyridin-8-yl)-3-(5-(1-(trifluoro-methyl)cyclopropyl)isoxazol-3-yl)urea]",–,< 200 nM
"Cc1cc(NC(=O)Nc2ccc(-c3cn(C4CC4)c4ncnc(N)c34)n3ccnc23)on1 [Example I-14, 1-(5-(4-amino-7-cyclopropyl-7H-pyrrolo[2,3-d]pyrimidin-5-yl)imidazo[1,2-a]pyridin-8-yl)-3-(3-methylisoxazol-5-yl)-urea]",–,> 2000 nM
"CCN1CCN(Cc2ccc(NC(=O)Nc3ccc(-c4cn(C5CC5)c5ncnc(N)c45)c4c3OCC4)cc2C(F)(F)F)CC1 [Example I-54, 1-(4-(4-amino-7-cyclopropyl-7H-pyrrolo[2,3-d]pyrimidin-5-yl)-2,3-dihydrobenzofuran-7-yl)-3-(4-((4-ethylpiperazin-1-yl)methyl)-3-(trifluorometh-yl)phenyl)urea]",–,< 200 nM
"CCN1CCC(Oc2ccc(NC(=O)Nc3ccc(-c4cn(C(C)C)c5ncnc(N)c45)n4ccnc34)cc2C(F)(F)F)CC1 [Example I-136, 1-(5-(4-amino-7-isopropyl-7H-pyrrolo[2,3-d]pyrimidin-5-yl)imidazo[1,2-a]pyridin-8-yl)-3-(4-((1-ethylpiperidin-4-yl)oxy)-3-(trifluoromethyl)-phenyl)urea]",–,< 200 nM
"CC1(C)Cc2c(-c3cn(C4CCC4)c4ncnc(N)c34)ccc(NC(=O)Nc3cc(C4(C(F)(F)F)CC4)on3)c2O1 [Example I-122, 1-(4-(4-amino-7-cyclobutyl-7H-pyrrolo[2,3-d]pyrimidin-5-yl)-2,2-dimethyl-2,3-dihydrobenzofuran-7-yl)-3-(5-(1-(trifluoromethyl)cyclo-propyl)isoxazol-3-yl)urea]",–,500 to 2000 nM
